The values below come from paper PMC6471062, “Suppression of the Ubiquitin Pathway by Small Molecule Binding to Ubiquitin Enhances Doxorubicin Sensitivity of the Cancer Cells” (Molecules, 2019).

The subject of one assay is Ubc13. The experiment in a line: In vitro K63 polyubiquitination reaction with Ubc13. Particulars: purified Ubc13 (Mms2/Ubc13), increasing CR (50–500 µM), 500 µM ubiquitin, 37 °C. In kind it is biochemical. As to the method: Figure 5 CR inhibits K48- and K63- polyubiquitination in vitro. (a) Interacting surface of ubiquitin when complex with E2-25K and Ubc13 compared with the surface used for CR binding. (b,c) CR inhibits K48- (b) and K63-ubiquitinations (c). First, mono ubiquitin was mixed with UBA1, E2-25K or complex Mms2/Ubc13, and 0–500 µM CR in the presence or absence of ATP regeneration system. Then the mixture was incubated at 37 °C for […]. The reaction was stopped by adding 5X SDS loading buffer and the results were analyzed with 15% SDS-PAGE.
For in vitro ubiquitination assays, 500 µM of ubiquitin was used for each ubiquitination reaction as described previously, in the absence or presence of 50–500 µM of CR. The reactions were incubated at 37 °C for 4 h and 16 h for K63- and K48 polyubiquitination respectively. The reaction was terminated by adding 5X SDS sampling buffer and results were subjected to 15% SDS-PAGE followed by Coomassie Blue staining for analyses. […] The generation of GST-ubiquitin from GST-Ubiquitin-HA as the mobility shifts were analyzed on 12.5% SDS-PAGE visualized by Coomassie blue staining. Band intensities were quantified by ImageJ [55] and used to generate the IC50 curves (log inhibitor vs. normalized response with variable slope) by GraphPad Prism version 6.0 for Windows (GraphPad Software, San Diego, CA, USA, www.graphpad.com).

The next assay deals with H1299 cells. The experiment in a line: Total ubiquitination state of non-Dox-treated cells (immunoblot, immunofluorescence). In kind it is cell-based. Particulars: H1299, 1.0 and 10 μM CR, 12 h. As to the method: Cells were seeded in the SPL 4 wells cell culture chamber slide 24 h before experiment. Cells were treated with an indicated compound for an indicated time. The cells were fixed with 4% formaldehyde for 15 min followed by three times of PBS washing. Cells were permeabilized by incubation with PBS containing 0.5% Triton-X100 and 5% FBS for 30 min, and then blocked with blocking buffer (PBS, 5% FBS, 0.3% Triton X-100) for 1.5 h. Subsequently, cells were incubated with primary antibody at 1/200 dilution in blocking buffer overnight and then washed with blocking buffer five times (5 min each) before incubation with fluorescence-conjugated secondary antibody at 1/200 dilution in blocking buffer for 1 h. Cells were then washed with blocking buffer five times (5 min each) before incubation with DAPI for 10 min and three times washing with PBS. Slides were covered with the coverslip in the presence of mounting solution (cat # 475904, MOWIOL) and subjected to confocal imaging. Images acquired in confocal imaging were subjected to fluorescence intensity analysis using ImageJ [55]. Fluorescence signal representing a particular ubiquitin chain level was analyzed and normalized with the intensity of DAPI. Data were analyzed using GraphPad Prism version 6.0 for Windows with two tail t-test for statistical data analysis. page 6: Figure S6. Effect of CR on the ubiquitination state of none-treated cells. […]

For the next assay, the system named is USP4. The experiment in a line: TOP flash luciferase reporter assay of β-catenin with USP4. In kind it is cell-based. The conditions noted are these: HEK293T, CR 0–30 μM, 24 h. As to the method:
Luciferase reporter assays were performed as described previously. Briefly, HEK293T cells were seeded in 12-well plates at 1 × 10^5 cells per well and incubated for 24 h before being transfected with either SRT-USP4 or Myc-β-catenin expression plasmids, along with the T cell factor (TCF) reporter plasmid (TOP flash) driving the expression of the luciferase gene. Equal amounts of total DNA in transfections were maintained by adding the control plasmids in each transfection experiment. 24 h post-transfection, cells were treated with CR (0–30 µM) for 24 h. After that, cells were harvested for luciferase reporter assays. Luciferase activity was measured according to the manufacturer’s instructions (Promega, Madison, WI, USA). page 5: (a) (b) Figure S5. CR inhibits USP4 deubiquitinase activity on its substrate, ß-catenin on the TOP flash reporter activity. (a) Cells were co-transfected with either SRT-USP4 or Myc‐β‐catenin expression plasmids, and TOP flash reporter plasmid containing a β‐catenin‐induced TCF reporter. 24-h post-transfection, CR was added at increasing concentrations (0 – 30 µM) and the cells were further cultured for 24 h. A top-flash activity assay of ß-catenin was conducted and (b) Western blot analysis with the indicated antibody was performed in parallel. […]
(A reporter such as luciferase makes a cellular process visible.)

For a further assay, the system named is HCT116 cells. The experiment in a line: Dox-induced cell death, colorimetric cell viability, HCT116. In kind it is cell-based. The conditions noted are these: 10 µM CR or 5 µM NSC697923 12 h, then Dox 1.25–5.0 μM 12 h. As to the method: Figure 7 CR enhances Dox sensitivity of cancer cells. (a,b) Enhancement of Dox-induced apoptosis of cancer cells by CR treatment. Dox–induced apoptosis of H1299 (a) and HCT116 (b) was quantified by colorimetric cell viability after treating 10 µM CR for 12 h followed by 12h treatment of Dox (0.0–5.0 µM). […] Caspase activity was quantified by luminogenic caspase activity assay. […] All error bars represent the standard deviation from at least four independent experiments. Statistical significance was calculated by the Student’s t-test (** p < 0.01, *** p < 0.001).
Cell viability assays were performed as described previously. For the caspase assays, the media were removed, and cells were lysed in 200 µL lysis buffer containing 50 µL Caspase Glo 3/7 solution and incubated for 15 min. Results were observed by measuring the luminescence signal using KOMM-Nr (Berthold Technologies, Bad Wildbad, Germany) and normalized with the total protein concentration measured by the Bradford assay. […]
Figure S8. NSC697923 enhances Dox sensitivity of cancer cells. (a, b) Effect of NSC697923 to cancer cells’ viability in Dox treatment . Dox–induced cell death of H1299 ( a) and HCT116 ( b) was quantified by colorimetric cell viability assay after treating 5 µM NSC697923 for 12 h followed by 12h treatment of Dox (0.0 […]
NSC697923. Caspase activity was quantified by luminogenic caspase activity assay. All error bars represent the standard deviation from at least 4 independent experiments. *, P<0.05; **, P<0.01; ***, P<0.001.

For the compound `Nc1c(/N=N/c2ccc(-c3ccc(/N=N/c4cc(S(=O)(=O)O)c5ccccc5c4N)cc3)cc2)cc(S(=O)(=O)O)c2ccccc12` [CR, Congo red], the “Inhibition of K63 polyubiquitination” value in the assay with Ubc13 was “effectively inhibited by CR in a dose-dependent manner”. For the same compound, the “Effect on total ubiquitination of normal (non-Dox-treated) cells” value in the assay with H1299 cells is “slight accumulation of the polyubiquitin chains”. The “Effect on USP4-enhanced β-catenin transcriptional activity (TOP flash)” value in the assay on USP4 is on record as “this enhancement was antagonized by CR treatment”. Also, the “Effect on Dox-induced cell death, HCT116” value in the assay with HCT116 cells is given as “significantly enhanced Dox-induced cell death”.
